In ChEMBL document CHEMBL3779777, “Novel amalgamation of phthalazine-quinolines as biofilm inhibitors: One-pot synthesis, biological evaluation and in silico ADME prediction with favorable metabolic fate” (Bioorg Med Chem Lett, 2016):
≈ marks a conversion by molar mass, not a printed value. Calls of active or inactive are those of the source. No cut-off for these calls is given here.

Tested on: Staphylococcus aureus
Test: Antibacterial activity against Staphylococcus aureus NCIM-2901 by standard agar method
Type: functional
Conditions: not given

Row | Compound | MIC [µg/mL]
1 | Cc1ccc2cc(C3C4=C(CC(C)(C)CC4=O)n4c(=O)c5ccccc5c(=O)n43)c3nnnn3c2c1 (stereo not drawn) | 112 (≈ 234 µM)
2 | CC1(C)CC(=O)C2=C(C1)n1c(=O)c3ccccc3c(=O)n1C2c1cc2ccccc2n2nnnc12 (stereo not drawn) | 85 (≈ 183 µM)
3 | Cc1ccc2cc(C3C4=C(CC(C)(C)CC4=O)n4c(=O)c5ccccc5c(=O)n43)c(Cl)nc2c1 (stereo not drawn) | 70 (≈ 148 µM)
4 | Cc1ccc2c(c1)cc(C1C3=C(CC(C)(C)CC3=O)n3c(=O)c4ccccc4c(=O)n31)c1nnnn12 (stereo not drawn) | 225 (≈ 470 µM)
5 | COc1ccc2cc(C3C4=C(CC(C)(C)CC4=O)n4c(=O)c5ccccc5c(=O)n43)c3nnnn3c2c1 (stereo not drawn) | 195 (≈ 394 µM)
6 | COc1ccc2c(c1)cc(C1C3=C(CC(C)(C)CC3=O)n3c(=O)c4ccccc4c(=O)n31)c1nnnn12 (stereo not drawn) | 225 (≈ 455 µM)
7 | Cc1ccc2nc(Cl)c(C3C4=C(CC(C)(C)CC4=O)n4c(=O)c5ccccc5c(=O)n43)cc2c1 (stereo not drawn) | 77.5 (≈ 164 µM)
8 | Cc1cccc2cc(C3C4=C(CC(C)(C)CC4=O)n4c(=O)c5ccccc5c(=O)n43)c(Cl)nc12 (stereo not drawn) | 67.5 (≈ 143 µM)
9 | Cc1cccc2cc(C3C4=C(CC(C)(C)CC4=O)n4c(=O)c5ccccc5c(=O)n43)c3nnnn3c12 (stereo not drawn) | 91.5 (≈ 191 µM)
10 | COc1ccc2nc(Cl)c(C3C4=C(CC(C)(C)CC4=O)n4c(=O)c5ccccc5c(=O)n43)cc2c1 (stereo not drawn) | 77.5 (≈ 159 µM)
11 | CC1(C)CC(=O)C2=C(C1)n1c(=O)c3ccccc3c(=O)n1C2c1cc2ccccc2nc1Cl (stereo not drawn) | 178 (≈ 390 µM)
12 | COc1ccc2cc(C3C4=C(CC(C)(C)CC4=O)n4c(=O)c5ccccc5c(=O)n43)c(Cl)nc2c1 (stereo not drawn) | 102 (≈ 209 µM)

Tested on: Candida albicans
Test: Antibiofilm activity against Candida albicans assessed as inhibition of biofilm formation after […] by Field emission scanning electron microscopy
Type: functional, organism-based
Conditions: not given

Row | Compound | inhibition
13 | COc1ccc2cc(C3C4=C(CC(C)(C)CC4=O)n4c(=O)c5ccccc5c(=O)n43)c(Cl)nc2c1 (stereo not drawn) | Active

Tested on: Pseudomonas aeruginosa
Test: Antibiofilm activity against Pseudomonas aeruginosa PAO1 after 18 hrs by crystal violet staining based spectroscopy
Type: functional, organism-based
Conditions: PAO1, 18 h

Row | Compound | IC50 [µM]
14 | Cc1ccc2cc(C3C4=C(CC(C)(C)CC4=O)n4c(=O)c5ccccc5c(=O)n43)c3nnnn3c2c1 (stereo not drawn) | 51
15 | CC1(C)CC(=O)C2=C(C1)n1c(=O)c3ccccc3c(=O)n1C2c1cc2ccccc2n2nnnc12 (stereo not drawn) | 66
16 | Cc1ccc2cc(C3C4=C(CC(C)(C)CC4=O)n4c(=O)c5ccccc5c(=O)n43)c(Cl)nc2c1 (stereo not drawn) | 51
17 | Cc1ccc2c(c1)cc(C1C3=C(CC(C)(C)CC3=O)n3c(=O)c4ccccc4c(=O)n31)c1nnnn12 (stereo not drawn) | 64.5
18 | O=C(O)c1cn(C2CC2)c2cc(N3CCNCC3)c(F)cc2c1=O [CIPROFLOXACIN] | 47
19 | COc1ccc2cc(C3C4=C(CC(C)(C)CC4=O)n4c(=O)c5ccccc5c(=O)n43)c3nnnn3c2c1 (stereo not drawn) | 72
20 | COc1ccc2c(c1)cc(C1C3=C(CC(C)(C)CC3=O)n3c(=O)c4ccccc4c(=O)n31)c1nnnn12 (stereo not drawn) | 46.5
21 | Cc1ccc2nc(Cl)c(C3C4=C(CC(C)(C)CC4=O)n4c(=O)c5ccccc5c(=O)n43)cc2c1 (stereo not drawn) | 46.5
22 | Cc1cccc2cc(C3C4=C(CC(C)(C)CC4=O)n4c(=O)c5ccccc5c(=O)n43)c(Cl)nc12 (stereo not drawn) | 66
23 | Cc1cccc2cc(C3C4=C(CC(C)(C)CC4=O)n4c(=O)c5ccccc5c(=O)n43)c3nnnn3c12 (stereo not drawn) | 61.5
24 | COc1ccc2nc(Cl)c(C3C4=C(CC(C)(C)CC4=O)n4c(=O)c5ccccc5c(=O)n43)cc2c1 (stereo not drawn) | 73.5
25 | CC1(C)CC(=O)C2=C(C1)n1c(=O)c3ccccc3c(=O)n1C2c1cc2ccccc2nc1Cl (stereo not drawn) | 30
26 | COc1ccc2cc(C3C4=C(CC(C)(C)CC4=O)n4c(=O)c5ccccc5c(=O)n43)c(Cl)nc2c1 (stereo not drawn) | 58.5

Tested on: Candida albicans
Test: Antifungal activity against Candida albicans NCIM-3471 by standard agar method
Type: functional
Conditions: not given

Row | Compound | MIC [µg/mL]
27 | Cc1ccc2cc(C3C4=C(CC(C)(C)CC4=O)n4c(=O)c5ccccc5c(=O)n43)c3nnnn3c2c1 (stereo not drawn) | 55 (≈ 115 µM)
28 | CC1(C)CC(=O)C2=C(C1)n1c(=O)c3ccccc3c(=O)n1C2c1cc2ccccc2n2nnnc12 (stereo not drawn) | 112 (≈ 242 µM)
29 | Cc1ccc2cc(C3C4=C(CC(C)(C)CC4=O)n4c(=O)c5ccccc5c(=O)n43)c(Cl)nc2c1 (stereo not drawn) | 112 (≈ 238 µM)
30 | Cc1ccc2c(c1)cc(C1C3=C(CC(C)(C)CC3=O)n3c(=O)c4ccccc4c(=O)n31)c1nnnn12 (stereo not drawn) | 67.5 (≈ 141 µM)
31 | COc1ccc2cc(C3C4=C(CC(C)(C)CC4=O)n4c(=O)c5ccccc5c(=O)n43)c3nnnn3c2c1 (stereo not drawn) | 220 (≈ 445 µM)
32 | COc1ccc2c(c1)cc(C1C3=C(CC(C)(C)CC3=O)n3c(=O)c4ccccc4c(=O)n31)c1nnnn12 (stereo not drawn) | 195 (≈ 394 µM)
33 | Cc1ccc2nc(Cl)c(C3C4=C(CC(C)(C)CC4=O)n4c(=O)c5ccccc5c(=O)n43)cc2c1 (stereo not drawn) | 175 (≈ 371 µM)
34 | Cc1cccc2cc(C3C4=C(CC(C)(C)CC4=O)n4c(=O)c5ccccc5c(=O)n43)c(Cl)nc12 (stereo not drawn) | 50 (≈ 106 µM)
35 | Cc1cccc2cc(C3C4=C(CC(C)(C)CC4=O)n4c(=O)c5ccccc5c(=O)n43)c3nnnn3c12 (stereo not drawn) | 175 (≈ 366 µM)
36 | COc1ccc2nc(Cl)c(C3C4=C(CC(C)(C)CC4=O)n4c(=O)c5ccccc5c(=O)n43)cc2c1 (stereo not drawn) | 55 (≈ 113 µM)
37 | CC1(C)CC(=O)C2=C(C1)n1c(=O)c3ccccc3c(=O)n1C2c1cc2ccccc2nc1Cl (stereo not drawn) | 125 (≈ 273 µM)
38 | OC(Cn1cncn1)(Cn1cncn1)c1ccc(F)cc1F [FLUCONAZOLE] | 50 (≈ 163 µM)
39 | COc1ccc2cc(C3C4=C(CC(C)(C)CC4=O)n4c(=O)c5ccccc5c(=O)n43)c(Cl)nc2c1 (stereo not drawn) | 57.5 (≈ 118 µM)

Tested on: Pseudomonas aeruginosa
Test: Antibacterial activity against Pseudomonas aeruginosa NCIM-2036 by standard agar method
Type: functional
Conditions: not given

Row | Compound | MIC [µg/mL]
40 | Cc1ccc2cc(C3C4=C(CC(C)(C)CC4=O)n4c(=O)c5ccccc5c(=O)n43)c3nnnn3c2c1 (stereo not drawn) | 102 (≈ 213 µM)
41 | CC1(C)CC(=O)C2=C(C1)n1c(=O)c3ccccc3c(=O)n1C2c1cc2ccccc2n2nnnc12 (stereo not drawn) | 68.5 (≈ 147 µM)
42 | Cc1ccc2cc(C3C4=C(CC(C)(C)CC4=O)n4c(=O)c5ccccc5c(=O)n43)c(Cl)nc2c1 (stereo not drawn) | 185 (≈ 392 µM)
43 | Cc1ccc2c(c1)cc(C1C3=C(CC(C)(C)CC3=O)n3c(=O)c4ccccc4c(=O)n31)c1nnnn12 (stereo not drawn) | 67.5 (≈ 141 µM)
44 | O=C(O)c1cn(C2CC2)c2cc(N3CCNCC3)c(F)cc2c1=O [CIPROFLOXACIN] | 50 (≈ 151 µM)
45 | COc1ccc2cc(C3C4=C(CC(C)(C)CC4=O)n4c(=O)c5ccccc5c(=O)n43)c3nnnn3c2c1 (stereo not drawn) | 250 (≈ 506 µM)
46 | COc1ccc2c(c1)cc(C1C3=C(CC(C)(C)CC3=O)n3c(=O)c4ccccc4c(=O)n31)c1nnnn12 (stereo not drawn) | 67.5 (≈ 136 µM)
47 | Cc1ccc2nc(Cl)c(C3C4=C(CC(C)(C)CC4=O)n4c(=O)c5ccccc5c(=O)n43)cc2c1 (stereo not drawn) | 150 (≈ 318 µM)
48 | Cc1cccc2cc(C3C4=C(CC(C)(C)CC4=O)n4c(=O)c5ccccc5c(=O)n43)c(Cl)nc12 (stereo not drawn) | 120 (≈ 254 µM)
49 | Cc1cccc2cc(C3C4=C(CC(C)(C)CC4=O)n4c(=O)c5ccccc5c(=O)n43)c3nnnn3c12 (stereo not drawn) | 84.5 (≈ 177 µM)
50 | COc1ccc2nc(Cl)c(C3C4=C(CC(C)(C)CC4=O)n4c(=O)c5ccccc5c(=O)n43)cc2c1 (stereo not drawn) | 205 (≈ 420 µM)
51 | CC1(C)CC(=O)C2=C(C1)n1c(=O)c3ccccc3c(=O)n1C2c1cc2ccccc2nc1Cl (stereo not drawn) | 45 (≈ 98.3 µM)
52 | COc1ccc2cc(C3C4=C(CC(C)(C)CC4=O)n4c(=O)c5ccccc5c(=O)n43)c(Cl)nc2c1 (stereo not drawn) | 110 (≈ 225 µM)

Tested on: Pseudomonas aeruginosa
Test: Antibiofilm activity against Pseudomonas aeruginosa assessed as inhibition of biofilm formation after […] by Field emission scanning electron microscopy
Type: functional, organism-based
Conditions: not given

Row | Compound | inhibition
53 | CC1(C)CC(=O)C2=C(C1)n1c(=O)c3ccccc3c(=O)n1C2c1cc2ccccc2nc1Cl (stereo not drawn) | Active

Tested on: Bacillus subtilis
Test: Antibacterial activity against Bacillus subtilis NCIM-2063 by standard agar method
Type: functional
Conditions: not given

Row | Compound | MIC [µg/mL]
54 | Cc1ccc2cc(C3C4=C(CC(C)(C)CC4=O)n4c(=O)c5ccccc5c(=O)n43)c3nnnn3c2c1 (stereo not drawn) | 158 (≈ 329 µM)
55 | CC1(C)CC(=O)C2=C(C1)n1c(=O)c3ccccc3c(=O)n1C2c1cc2ccccc2n2nnnc12 (stereo not drawn) | 100 (≈ 215 µM)
56 | Cc1ccc2cc(C3C4=C(CC(C)(C)CC4=O)n4c(=O)c5ccccc5c(=O)n43)c(Cl)nc2c1 (stereo not drawn) | 87.5 (≈ 185 µM)
57 | Cc1ccc2c(c1)cc(C1C3=C(CC(C)(C)CC3=O)n3c(=O)c4ccccc4c(=O)n31)c1nnnn12 (stereo not drawn) | 158 (≈ 329 µM)
58 | COc1ccc2cc(C3C4=C(CC(C)(C)CC4=O)n4c(=O)c5ccccc5c(=O)n43)c3nnnn3c2c1 (stereo not drawn) | 168 (≈ 340 µM)
59 | COc1ccc2c(c1)cc(C1C3=C(CC(C)(C)CC3=O)n3c(=O)c4ccccc4c(=O)n31)c1nnnn12 (stereo not drawn) | 188 (≈ 379 µM)
60 | Cc1ccc2nc(Cl)c(C3C4=C(CC(C)(C)CC4=O)n4c(=O)c5ccccc5c(=O)n43)cc2c1 (stereo not drawn) | 158 (≈ 334 µM)
61 | Cc1cccc2cc(C3C4=C(CC(C)(C)CC4=O)n4c(=O)c5ccccc5c(=O)n43)c(Cl)nc12 (stereo not drawn) | 142 (≈ 302 µM)
62 | Cc1cccc2cc(C3C4=C(CC(C)(C)CC4=O)n4c(=O)c5ccccc5c(=O)n43)c3nnnn3c12 (stereo not drawn) | 170 (≈ 355 µM)
63 | COc1ccc2nc(Cl)c(C3C4=C(CC(C)(C)CC4=O)n4c(=O)c5ccccc5c(=O)n43)cc2c1 (stereo not drawn) | 57.5 (≈ 118 µM)
64 | CC1(C)CC(=O)C2=C(C1)n1c(=O)c3ccccc3c(=O)n1C2c1cc2ccccc2nc1Cl (stereo not drawn) | 148 (≈ 324 µM)
65 | COc1ccc2cc(C3C4=C(CC(C)(C)CC4=O)n4c(=O)c5ccccc5c(=O)n43)c(Cl)nc2c1 (stereo not drawn) | 98.5 (≈ 202 µM)

Tested on: Candida albicans
Test: Antibiofilm activity against Candida albicans after 24 hrs by MTT assay
Type: functional, organism-based
Conditions: not given

Row | Compound | IC50 [µM]
66 | Cc1ccc2cc(C3C4=C(CC(C)(C)CC4=O)n4c(=O)c5ccccc5c(=O)n43)c3nnnn3c2c1 (stereo not drawn) | 67.5
67 | CC1(C)CC(=O)C2=C(C1)n1c(=O)c3ccccc3c(=O)n1C2c1cc2ccccc2n2nnnc12 (stereo not drawn) | 49.5
68 | Cc1ccc2cc(C3C4=C(CC(C)(C)CC4=O)n4c(=O)c5ccccc5c(=O)n43)c(Cl)nc2c1 (stereo not drawn) | 49.5
69 | Cc1ccc2c(c1)cc(C1C3=C(CC(C)(C)CC3=O)n3c(=O)c4ccccc4c(=O)n31)c1nnnn12 (stereo not drawn) | 70.5
70 | COc1ccc2cc(C3C4=C(CC(C)(C)CC4=O)n4c(=O)c5ccccc5c(=O)n43)c3nnnn3c2c1 (stereo not drawn) | 43.5
71 | COc1ccc2c(c1)cc(C1C3=C(CC(C)(C)CC3=O)n3c(=O)c4ccccc4c(=O)n31)c1nnnn12 (stereo not drawn) | 81
72 | Cc1ccc2nc(Cl)c(C3C4=C(CC(C)(C)CC4=O)n4c(=O)c5ccccc5c(=O)n43)cc2c1 (stereo not drawn) | 51
73 | Cc1cccc2cc(C3C4=C(CC(C)(C)CC4=O)n4c(=O)c5ccccc5c(=O)n43)c(Cl)nc12 (stereo not drawn) | 37.5
74 | Cc1cccc2cc(C3C4=C(CC(C)(C)CC4=O)n4c(=O)c5ccccc5c(=O)n43)c3nnnn3c12 (stereo not drawn) | 61.5
75 | COc1ccc2nc(Cl)c(C3C4=C(CC(C)(C)CC4=O)n4c(=O)c5ccccc5c(=O)n43)cc2c1 (stereo not drawn) | 36
76 | CC1(C)CC(=O)C2=C(C1)n1c(=O)c3ccccc3c(=O)n1C2c1cc2ccccc2nc1Cl (stereo not drawn) | 79.5
77 | OC(Cn1cncn1)(Cn1cncn1)c1ccc(F)cc1F [FLUCONAZOLE] | 40
78 | COc1ccc2cc(C3C4=C(CC(C)(C)CC4=O)n4c(=O)c5ccccc5c(=O)n43)c(Cl)nc2c1 (stereo not drawn) | 34.5
